Assay: xn = mol fraction of the nth substance listed
Conditions: 101.3 kPa, Liquid

CCCCCCCl [1-chlorohexane] + CCCCCC
Conditions	mass density [kg/m3]	viscosity [mPa·s]
293.15 K, x1 = 0.1	683.01	0.3403
293.15 K, x1 = 0.15	694.01	0.3532
293.15 K, x1 = 0.2	706.37	0.3669
293.15 K, x1 = 0.3	728.21	0.3965
293.15 K, x1 = 0.5	771.87	0.4691
293.15 K, x1 = 0.7	815.39	0.5662
293.15 K, x1 = 0.9	856.91	0.6932
293.15 K, x1 = 1	878.52	0.7704
298.15 K, x1 = 0.1	678.51	0.3263
298.15 K, x1 = 0.15	689.61	0.3384
298.15 K, x1 = 0.2	701.84	0.352
298.15 K, x1 = 0.3	723.73	0.3794
298.15 K, x1 = 0.5	767.36	0.4464
298.15 K, x1 = 0.7	810.91	0.5367
298.15 K, x1 = 0.9	852.37	0.6495
298.15 K, x1 = 1	873.75	0.7173
303.15 K, x1 = 0.1	673.93	0.313
303.15 K, x1 = 0.15	685.15	0.3245
303.15 K, x1 = 0.2	697.27	0.3377
303.15 K, x1 = 0.3	719.21	0.3632
303.15 K, x1 = 0.5	762.82	0.4254
303.15 K, x1 = 0.7	806.39	0.5094
303.15 K, x1 = 0.9	847.8	0.6103
303.15 K, x1 = 1	868.98	0.6702
308.15 K, x1 = 0.1	669.37	0.2998
308.15 K, x1 = 0.15	680.63	0.3107
308.15 K, x1 = 0.2	692.67	0.3233
308.15 K, x1 = 0.3	714.64	0.3475
308.15 K, x1 = 0.5	758.26	0.4061
308.15 K, x1 = 0.7	801.83	0.4844
308.15 K, x1 = 0.9	843.21	0.5754
308.15 K, x1 = 1	864.21	0.6283
313.15 K, x1 = 0.1	664.73	0.2881
313.15 K, x1 = 0.15	676.04	0.2985
313.15 K, x1 = 0.2	688.03	0.3109
313.15 K, x1 = 0.3	710.03	0.3337
313.15 K, x1 = 0.5	753.66	0.3884
313.15 K, x1 = 0.7	797.24	0.4614
313.15 K, x1 = 0.9	838.59	0.5436
313.15 K, x1 = 1	859.44	0.591
318.15 K, x1 = 0.1	660.04	0.2765
318.15 K, x1 = 0.15	671.39	0.2865
318.15 K, x1 = 0.2	683.36	0.2984
318.15 K, x1 = 0.3	705.37	0.3201
318.15 K, x1 = 0.5	749.03	0.372
318.15 K, x1 = 0.7	792.61	0.4402
318.15 K, x1 = 0.9	833.95	0.5152
318.15 K, x1 = 1	854.67	0.558
323.15 K, x1 = 0.1	655.31	0.266
323.15 K, x1 = 0.15	666.68	0.2755
323.15 K, x1 = 0.2	678.65	0.2868
323.15 K, x1 = 0.3	700.66	0.3076
323.15 K, x1 = 0.5	744.37	0.3569
323.15 K, x1 = 0.7	787.95	0.4208
323.15 K, x1 = 0.9	829.29	0.4899
323.15 K, x1 = 1	849.9	0.5285
328.15 K, x1 = 0.1	650.53	0.256
328.15 K, x1 = 0.15	661.91	0.2652
328.15 K, x1 = 0.2	673.9	0.2759
328.15 K, x1 = 0.3	695.91	0.2959
328.15 K, x1 = 0.5	739.68	0.3428
328.15 K, x1 = 0.7	783.25	0.4027
328.15 K, x1 = 0.9	824.61	0.4666
328.15 K, x1 = 1	845.12	0.5019
333.15 K, x1 = 0.1	645.7	0.2468
333.15 K, x1 = 0.15	657.07	0.2556
333.15 K, x1 = 0.2	669.12	0.2658
333.15 K, x1 = 0.3	691.11	0.2849
333.15 K, x1 = 0.5	734.96	0.3297
333.15 K, x1 = 0.7	778.51	0.3862
333.15 K, x1 = 0.9	819.9	0.4455
333.15 K, x1 = 1	840.35	0.4778

From the NIST ThermoML archive (doi:10.1021/je034002l)
